Test results: ChEMBL document CHEMBL6074623, “Carbamoylation at C-8 position of natural 3-arylcoumarin scaffold for the discovery of novel PARP-1 inhibitors with potent anticancer activity” (Eur J Med Chem, 2024)
Active and inactive are the calls of the source. The rule behind the calls is not given here.

How the values were obtained:
HCC1937 [1] = assay: Antiproliferative activity against human HCC1937 cells assessed as inhibition of cell growth incubated for 48 hrs by MTT assay; type: functional, cell-based; conditions: HCC1937, 48 h
SUM149PT [2] = assay: Antiproliferative activity against human SUM149PT cells assessed as inhibition of cell growth at 20 uM incubated for 48 hrs by MTT assay relative to control; type: functional
HCC1937 [3] = assay: Antiproliferative activity against human HCC1937 cells assessed as inhibition of cell growth at 20 uM incubated for 48 hrs by MTT assay relative to control; type: functional
[4] = target: Poly [ADP-ribose] polymerase 2 (Homo sapiens, UniProt Q9UGN5); assay: Inhibition of PARP-2 in human SUM149PT cells incubated for 48 hrs by HRP-ELISA; type: cell-based
SUM149PT [5] = assay: Induction of DNA double strand breaks in human SUM149PT cells assessed as increase in gamma-H2AX level incubated for 48 hrs by Western blotting analysis; type: functional, cell-based
Mitochondrial membrane = assay: Induction of mitochondrial membrane potential loss in human SUM149PT cells at 2 uM incubated for 48 hrs by JC-1 staining based confocal laser scanning microscopic analysis relative to niraparib
SUM149PT [6] = assay: Induction of ROS in human SUM149PT cells assessed as increase in fluorescence intensity incubated for 48 hrs by DCFH-DA staining based confocal laser scanning microscopic analysis; type: functional, cell-based
SUM149PT [7] = assay: Induction of ROS in human SUM149PT cells assessed as increase in fluorescence intensity at 2 uM incubated for 48 hrs by DCFH-DA staining based confocal laser scanning microscopic analysis relative to niraparib; type: functional, cell-based
SUM149PT [8] = assay: Induction of cell cycle arrest in human SUM149PT cells assessed as accumulation of cells at S phase at 0.1 uM incubated for 24 hrs by propidium iodide/RNase A staining based flow cytometry (reference value: 16.4 %); type: functional
SUM149PT [9] = assay: Induction of cell cycle arrest in human SUM149PT cells assessed as accumulation of cells at G2/M phase at 0.1 uM incubated for 24 hrs by propidium iodide/RNase A staining based flow cytometry (reference value: 5.54 %); type: functional
SUM149PT [10] = assay: Induction of cell cycle arrest in human SUM149PT cells assessed as accumulation of cells at G0/G1 phase at 0.5 uM incubated for 24 hrs by propidium iodide/RNase A staining based flow cytometry (reference value: 72.8 %); type: functional
SUM149PT [11] = assay: Induction of cell cycle arrest in human SUM149PT cells assessed as accumulation of cells at G2/M phase at 0.5 uM incubated for 24 hrs by propidium iodide/RNase A staining based flow cytometry (reference value: 5.54 %); type: functional
SUM149PT [12] = assay: Induction of cell cycle arrest in human SUM149PT cells assessed as accumulation of cells at G0/G1 phase at 2 uM incubated for 24 hrs by propidium iodide/RNase A staining based flow cytometry (reference value: 72.8 %); type: functional
SUM149PT [13] = assay: Induction of cell cycle arrest in human SUM149PT cells assessed as accumulation of cells at G0/G1 phase at 0.1 uM incubated for 48 hrs by propidium iodide/RNase A staining based flow cytometry (reference value: 69.2 %); type: functional
SUM149PT [14] = assay: Induction of cell cycle arrest in human SUM149PT cells assessed as accumulation of cells at S phase at 0.1 uM incubated for 48 hrs by propidium iodide/RNase A staining based flow cytometry (reference value: 18.7 %); type: functional
SUM149PT [15] = assay: Induction of cell cycle arrest in human SUM149PT cells assessed as accumulation of cells at G0/G1 phase at 2 uM incubated for 48 hrs by propidium iodide/RNase A staining based flow cytometry (reference value: 69.2 %); type: functional
SUM149PT [16] = assay: Induction of apoptosis in human SUM149PT cells assessed as viable cells at 0.1 uM incubated for 24 hrs by Annexin V-FITC/PI staining based flow cytometry (reference value: 93.7 %); type: functional; conditions: read-out: Activity
SUM149PT [17] = assay: Induction of apoptosis in human SUM149PT cells assessed as early apoptotic cells at 0.1 uM incubated for 24 hrs by Annexin V-FITC/PI staining based flow cytometry (reference value: 2.59 %); type: functional
SUM149PT [18] = assay: Induction of apoptosis in human SUM149PT cells assessed as late apoptotic cells at 0.1 uM incubated for 24 hrs by Annexin V-FITC/PI staining based flow cytometry (reference value: 2.45 %); type: functional
SUM149PT [19] = assay: Induction of apoptosis in human SUM149PT cells assessed as viable cells at 0.5 uM incubated for 24 hrs by Annexin V-FITC/PI staining based flow cytometry (reference value: 93.7 %); type: functional; conditions: read-out: Activity
SUM149PT [20] = assay: Induction of apoptosis in human SUM149PT cells assessed as late apoptotic cells at 0.5 uM incubated for 24 hrs by Annexin V-FITC/PI staining based flow cytometry (reference value: 2.45 %); type: functional
SUM149PT [21] = assay: Induction of apoptosis in human SUM149PT cells assessed as late apoptotic cells at 2 uM incubated for 24 hrs by Annexin V-FITC/PI staining based flow cytometry (reference value: 2.45 %); type: functional
SUM149PT [22] = assay: Induction of apoptosis in human SUM149PT cells assessed as viable cells at 0.1 uM incubated for 48 hrs by Annexin V-FITC/PI staining based flow cytometry (reference value: 96.1 %); type: functional; conditions: read-out: Activity
SUM149PT [23] = assay: Induction of apoptosis in human SUM149PT cells assessed as late apoptotic cells at 0.1 uM incubated for 48 hrs by Annexin V-FITC/PI staining based flow cytometry (reference value: 1.13 %); type: functional
SUM149PT [24] = assay: Induction of apoptosis in human SUM149PT cells assessed as viable cells at 0.5 uM incubated for 48 hrs by Annexin V-FITC/PI staining based flow cytometry (reference value: 96.1 %); type: functional; conditions: read-out: Activity
SUM149PT [25] = assay: Induction of apoptosis in human SUM149PT cells assessed as early apoptotic cells at 0.5 uM incubated for 48 hrs by Annexin V-FITC/PI staining based flow cytometry (reference value: 2.28 %); type: functional
SUM149PT [26] = assay: Induction of apoptosis in human SUM149PT cells assessed as late apoptotic cells at 0.5 uM incubated for 48 hrs by Annexin V-FITC/PI staining based flow cytometry (reference value: 1.13 %); type: functional
SUM149PT [27] = assay: Induction of apoptosis in human SUM149PT cells assessed as viable cells at 2 uM incubated for 48 hrs by Annexin V-FITC/PI staining based flow cytometry (reference value: 96.1 %); type: functional; conditions: read-out: Activity
SUM149PT [28] = assay: Induction of apoptosis in human SUM149PT cells assessed as early apoptotic cells at 2 uM incubated for 48 hrs by Annexin V-FITC/PI staining based flow cytometry (reference value: 2.28 %); type: functional
SUM149PT [29] = assay: Induction of apoptosis in human SUM149PT cells assessed as upregulation of BAX expression incubated for 48 hrs by Western blotting analysis; type: functional, cell-based
SUM149PT [30] = assay: Induction of apoptosis in human SUM149PT cells assessed as upregulation of caspase-3 expression incubated for 48 hrs by Western blotting analysis; type: functional, cell-based
SUM149PT [31] = assay: Induction of apoptosis in human SUM149PT cells assessed as downregulation of BCL-2 expression incubated for 48 hrs by Western blotting analysis; type: functional, cell-based
MDA-MB-436 = assay: Antiproliferative activity against human MDA-MB-436 cells assessed as inhibition of cell growth at 20 uM incubated for 48 hrs by MTT assay relative to control; type: functional

Sequence of Poly [ADP-ribose] polymerase 2 (Q9UGN5 whole entry): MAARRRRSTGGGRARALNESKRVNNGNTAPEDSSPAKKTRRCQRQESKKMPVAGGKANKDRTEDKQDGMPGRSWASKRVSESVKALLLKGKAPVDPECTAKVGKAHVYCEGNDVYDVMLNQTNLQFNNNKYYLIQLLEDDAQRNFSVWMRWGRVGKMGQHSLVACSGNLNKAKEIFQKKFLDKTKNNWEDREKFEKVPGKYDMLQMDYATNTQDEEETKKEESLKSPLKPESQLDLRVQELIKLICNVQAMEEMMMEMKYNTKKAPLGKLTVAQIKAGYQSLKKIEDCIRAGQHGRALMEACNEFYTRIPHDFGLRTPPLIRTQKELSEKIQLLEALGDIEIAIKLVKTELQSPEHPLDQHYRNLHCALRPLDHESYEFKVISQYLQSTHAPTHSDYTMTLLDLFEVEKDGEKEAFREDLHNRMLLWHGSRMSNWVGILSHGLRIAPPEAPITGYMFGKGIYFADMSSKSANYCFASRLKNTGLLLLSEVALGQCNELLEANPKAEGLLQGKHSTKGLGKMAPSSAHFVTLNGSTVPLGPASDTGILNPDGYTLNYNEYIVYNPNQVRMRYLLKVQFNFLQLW

## COc1cccc(-c2cc3cc(F)cc(C(N)=O)c3oc2=O)c1
HCC1937 [1]
  IC50: 1910 nM
SUM149PT [2]
  inhibition at 20 µM: > 80%
HCC1937 [3]
  inhibition at 20 µM: > 60%
[4]
  IC50: 6.45 nM
SUM149PT [5]
  Activity: Dose-dependent-effect
Mitochondrial membrane
  Activity: Active
SUM149PT [6]
  Activity: Dose-dependent-effect
SUM149PT [7]
  Activity: Active
SUM149PT [8]
  Activity: 33.2%
SUM149PT [9]
  Activity: 6.91%
SUM149PT [10]
  Activity: 64.3%
SUM149PT [11]
  Activity: 22.3%
SUM149PT [12]
  Activity: 39.9%
SUM149PT [13]
  Activity: 25.9%
SUM149PT [14]
  Activity: 45.4%
SUM149PT [15]
  Activity: 16.9%
SUM149PT [16]
  viability at 0.1 µM: 91.5%
SUM149PT [17]
  Activity: 3.96%
SUM149PT [18]
  Activity: 2.69%
SUM149PT [19]
  viability at 0.5 µM: 86.6%
SUM149PT [20]
  Activity: 5.48%
SUM149PT [21]
  Activity: 6.87%
SUM149PT [22]
  viability at 0.1 µM: 87.3%
SUM149PT [23]
  Activity: 6%
SUM149PT [24]
  viability at 0.5 µM: 61.3%
SUM149PT [25]
  Activity: 13.4%
SUM149PT [26]
  Activity: 13.5%
SUM149PT [27]
  viability at 2 µM: 61%
SUM149PT [28]
  Activity: 29.6%
SUM149PT [29]
  Activity: Dose-dependent-effect
SUM149PT [30]
  Activity: Dose-dependent-effect
SUM149PT [31]
  Activity: Dose-dependent-effect
MDA-MB-436
  inhibition at 20 µM: < 40%
